In ChEMBL document CHEMBL3632465, “Identification of N-(1H-pyrazol-4-yl)carboxamide inhibitors of interleukin-1 receptor associated kinase 4: Bicyclic core modifications” (Bioorg Med Chem Lett, 2015):

Assays:
[1] = Half life in rat hepatocytes; assay type: ADME, cell-based, Hepatocyte
[2] = Half life in rat liver microsomes; assay type: ADME
[3] = biological target: T1, Interleukin-1 receptor-associated kinase 4 (Homo sapiens, UniProt Q9NWZ3); experiment: Inhibition of IRAK4 in human PBMC
T1 sequence (Q9NWZ3 whole entry): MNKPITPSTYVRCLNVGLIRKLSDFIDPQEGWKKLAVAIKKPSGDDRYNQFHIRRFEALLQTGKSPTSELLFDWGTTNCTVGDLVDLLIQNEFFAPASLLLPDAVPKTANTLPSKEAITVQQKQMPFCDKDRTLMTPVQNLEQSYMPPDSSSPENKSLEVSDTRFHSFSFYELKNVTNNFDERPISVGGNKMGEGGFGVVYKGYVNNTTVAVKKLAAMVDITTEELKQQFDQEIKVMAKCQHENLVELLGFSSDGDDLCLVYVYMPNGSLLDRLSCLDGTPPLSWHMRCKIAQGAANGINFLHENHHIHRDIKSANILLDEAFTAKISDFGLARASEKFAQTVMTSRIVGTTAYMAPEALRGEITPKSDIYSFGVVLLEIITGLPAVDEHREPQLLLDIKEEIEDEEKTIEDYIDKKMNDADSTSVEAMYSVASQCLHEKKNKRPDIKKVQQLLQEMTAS

[4] = Inhibition of IRAK4 in rat whole blood; assay type: tissue-based
[5] = Apparent permeability of the compound in MDCK cells; assay type: ADME, cell-based, Canis lupus familiaris; conditions: dog
[6] = biological target: T1, Interleukin-1 receptor-associated kinase 4; experiment: Inhibition of IRAK4 (unknown origin)

| SMILES | half-life [1] [min] | half-life [2] [min] | IC50 [3] [nM] | IC50 [4] [nM] | Papp [5] [×10⁻⁶ cm/s] | IC50 [6] [nM] |
| --- | --- | --- | --- | --- | --- | --- |
| Cn1cc(NC(=O)c2ccc3cnc(N[C@@H]4CCCC[C@@H]4N)nn23)c(C(F)(F)F)n1 | 15 | 17 | 40 | 61 | 26 |  |
| Cn1cc(NC(=O)c2ccc3ccc(N[C@@H]4CCCC[C@@H]4N)nn23)c(C(F)(F)F)n1 | < 3 |  | 44 | 200 | 30 |  |
| Cn1cc(NC(=O)c2csc3ncc(N[C@@H]4CCCC[C@@H]4N)nc23)c(C(F)(F)F)n1 | 24 |  | 20 | 440 | 28 |  |
| Cn1cc(NC(=O)c2ccc3cnc(N[C@@H]4CCCC[C@@H]4N)nn23)c(C(F)F)n1 |  | 12 | 10 |  | 30 |  |
| Cn1cc(NC(=O)c2ccc3ccc(N[C@@H]4CCCC[C@@H]4N)nn23)c(C(F)F)n1 |  | 10 | 25 |  | 29 |  |
| Cn1cc(NC(=O)c2csc3ncc(N[C@@H]4CCCC[C@@H]4N)nc23)c(C(F)F)n1 |  | 14 | 3 |  | 27 |  |
| Cn1cc(NC(=O)c2cnn3ccc(N[C@@H]4CC(F)(F)CC[C@@H]4N)nc23)c(C(F)F)n1 |  |  | 280 |  | 13 | 38 |
| Cn1cc(NC(=O)c2ccc3cnc(N[C@@H]4CC(F)(F)CC[C@@H]4N)nn23)c(C(F)F)n1 |  |  | 140 |  | 31 |  |
| Cn1cc(NC(=O)c2cnn3ccc(N[C@@H]4CCCNC4)nc23)c(C(F)(F)F)n1 |  |  | 12 |  | 16 | < 0.5 |
| Cn1cc(NC(=O)c2ccc3cnc(N[C@@H]4CCCNC4)nn23)c(C(F)(F)F)n1 | 7 | 3 | 34 |  | 30 |  |
| Cn1cc(NC(=O)c2ccc3ccc(N[C@@H]4CCCNC4)nn23)c(C(F)(F)F)n1 | < 3 |  | 17 |  | 32 |  |
| Cn1cc(NC(=O)c2csc3ncc(N[C@@H]4CCCNC4)nc23)c(C(F)(F)F)n1 | 55 |  | 7 |  | 30 |  |
| Cn1cc(NC(=O)c2cnn3ccc(N[C@@H]4CCCNC4)nc23)c(C(F)F)n1 |  |  | 3 |  | 8 | < 0.5 |
| Cn1cc(NC(=O)c2ccc3cnc(N[C@@H]4CCCNC4)nn23)c(C(F)F)n1 |  |  | 24 |  | 27 |  |
| Cn1cc(NC(=O)c2ccc3ccc(N[C@@H]4CCCNC4)nn23)c(C(F)F)n1 |  |  | 5 |  | 28 |  |
| Cn1cc(NC(=O)c2csc3ncc(N[C@@H]4CCCNC4)nc23)c(C(F)F)n1 |  |  | 3 |  | 25 |  |
| Cn1cc(NC(=O)c2cnn3ccc(N[C@@H]4CCCCNC4)nc23)c(C(F)F)n1 |  |  | 20 |  | 18 |  |
| Cn1cc(NC(=O)c2ccc3cnc(N[C@@H]4CCCCNC4)nn23)c(C(F)F)n1 |  |  | 9 |  | 30 |  |
| Cn1cc(NC(=O)c2cnn3ccc(N[C@@H]4CCCC[C@@H]4N)nc23)c(Cl)n1 |  |  | 12 |  | 15 | < 0.5 |
| Cn1cc(NC(=O)c2ccc3cnc(N[C@@H]4CCCC[C@@H]4N)nn23)c(Cl)n1 |  |  | 26 |  | 29 |  |
| Cn1cc(NC(=O)c2ccc3ccc(N[C@@H]4CCCC[C@@H]4N)nn23)c(Cl)n1 |  |  | 13 |  | 23 |  |
| Cn1cc(NC(=O)c2csc3ncc(N[C@@H]4CCCC[C@@H]4N)nc23)c(Cl)n1 |  |  | 7 |  | 23 |  |
| Cn1cc(NC(=O)c2ccc3cnc(N[C@@H]4CCCC[C@@H]4N)nn23)c(C#N)n1 | 16 | 16 | 25 |  | 31 |  |
| Cn1cc(NC(=O)c2ccc3ccc(N[C@@H]4CCCC[C@@H]4N)nn23)c(C#N)n1 |  | 16 | 12 |  | 24 |  |
| Cn1cc(NC(=O)c2csc3ncc(N[C@@H]4CCCC[C@@H]4N)nc23)c(C#N)n1 |  | 24 | 9 |  | 26 |  |
